For the assay, the target named is T1, recombinant full-length USP7 (Homo sapiens, UniProt Q93009).
T1 construct: A 25 μl reaction volume containing recombinant full-length USP7 (62 pM)
As to the kind of experiment: USP7-mediated ubiquitin-rhodamine cleavage assay. It is filed as biochemical. The conditions noted are these: recombinant full-length USP7 62 pM; ubiquitin-rhodamine 100 nM; 30-minute incubation with compound, 1 hour reaction at room temperature; read-out: Potency: USP7 IC50. How it is done:
In the case of the USP7 deubiquitylating enzyme, the IC50 of an USP7 inhibiting compound is the concentration of the compound that inhibits 50% of the activity observed in a USP7-mediated ubiquitin-rhodamine cleavage assay.
For the USP7 inhibitors disclosed herein, their potency was measured using the following test method.
A 25 μl reaction volume containing recombinant full-length USP7 (62 pM) in 20 mM HEPES pH 7.3, 150 mM NaCl, 1 mM TCEP, and 125 μg/ml BSA was assembled in wells of 384 well plates. Test compounds were dispensed with a Hewlett Packard D300 digital dispenser (1% final DMSO). Following a 30-minute incubation at room temperature, ubiquitin-rhodamine was added with the D300 to a final concentration of 100 nM and the reaction was allowed to proceed for 1 hour at room temperature protected from light. The reaction was stopped by the addition of 5 μl 1M acetic acid. Rhodamine fluorescence was measured using an Envision plate reader (Perkin Elmer) and IC50 values were determined by non-linear regression using a 4-parameter fit in a Dotmatics (Bishops Stortford, Hertfordshire, England) software package.

For orientation: IC50 means the point on the concentration scale where inhibition reaches its midpoint.

A value given as a limit tells only on which side of the number the result lay.

T1 sequence (Q93009 whole entry): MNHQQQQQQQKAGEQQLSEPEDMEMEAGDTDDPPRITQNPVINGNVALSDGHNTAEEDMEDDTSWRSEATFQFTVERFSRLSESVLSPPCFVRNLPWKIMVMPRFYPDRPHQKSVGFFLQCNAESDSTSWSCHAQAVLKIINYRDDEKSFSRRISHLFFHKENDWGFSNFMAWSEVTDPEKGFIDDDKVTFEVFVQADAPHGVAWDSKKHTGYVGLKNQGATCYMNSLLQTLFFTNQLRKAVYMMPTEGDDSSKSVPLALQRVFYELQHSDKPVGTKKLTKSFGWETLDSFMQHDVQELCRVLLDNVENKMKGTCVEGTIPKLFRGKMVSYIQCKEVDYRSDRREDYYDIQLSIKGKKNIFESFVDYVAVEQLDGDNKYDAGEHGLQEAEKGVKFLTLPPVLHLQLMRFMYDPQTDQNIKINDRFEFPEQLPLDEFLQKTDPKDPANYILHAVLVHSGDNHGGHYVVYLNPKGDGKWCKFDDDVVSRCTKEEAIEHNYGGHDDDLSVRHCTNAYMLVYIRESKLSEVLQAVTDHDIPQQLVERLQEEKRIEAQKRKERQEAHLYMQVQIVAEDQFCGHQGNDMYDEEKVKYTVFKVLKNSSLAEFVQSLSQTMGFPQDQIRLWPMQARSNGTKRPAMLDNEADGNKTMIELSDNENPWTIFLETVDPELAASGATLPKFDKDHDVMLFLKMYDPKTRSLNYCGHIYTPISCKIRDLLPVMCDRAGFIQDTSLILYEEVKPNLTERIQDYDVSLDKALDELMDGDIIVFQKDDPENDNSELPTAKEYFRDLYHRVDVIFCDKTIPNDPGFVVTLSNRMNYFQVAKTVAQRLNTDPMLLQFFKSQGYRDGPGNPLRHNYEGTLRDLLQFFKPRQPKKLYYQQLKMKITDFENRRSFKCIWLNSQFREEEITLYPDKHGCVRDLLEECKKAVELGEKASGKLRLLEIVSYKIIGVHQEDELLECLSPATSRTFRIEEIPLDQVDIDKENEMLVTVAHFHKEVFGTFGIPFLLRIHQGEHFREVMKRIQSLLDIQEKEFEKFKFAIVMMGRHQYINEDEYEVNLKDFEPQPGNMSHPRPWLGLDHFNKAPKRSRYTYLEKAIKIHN

Consider `Cc1cc(Cl)cc(-c2ccnc3cc(Cn4c(=O)ccn(CC(F)(F)F)c4=O)sc23)c1O[C@@H]1CC[C@@H](N)C1` [Example 59, 3-((7-(2-(((1R,3R)-3-Aminocyclopentyl)oxy)-5-chloro-3-methylphenyl)thieno[3,2-b]pyridin-2-yl)methyl)-1-(2,2,2-trifluoroethyl)pyrimidine-2,4(1H,3H)-dione], for which the 50% inhibitory concentration (IC50) is under 1 µM.
As for `Cc1cc(Cl)cc(-c2ccnc3cc(CO)sc23)c1O[C@@H]1CN[C@@H](C)C1` [Example 60, (7-(5-Chloro-3-methyl-2-(((3S,5S)-5-methylpyrrolidin-3-yl)oxy)phenyl)thieno[3,2-b]pyridin-2-yl)methanol], the IC50 lay in the range of 10 to 30 µM.
Under `Cc1cc(Cl)cc(-c2ccnc3cc(Cn4c(=O)ccn(CC(F)(F)F)c4=O)sc23)c1OC1CNC1` [Example 61, 3-((7-(2-(Azetidin-3-yloxy)-5-chloro-3-methylphenyl)thieno[3,2-b]pyridin-2-yl)methyl)-1-(2,2,2-trifluoroethyl)pyrimidine-2,4(1H,3H)-dione] stands under 1 µM; under `Cc1cc(Cl)cc(-c2ccnc3cc(CO)sc23)c1O[C@@H]1CN[C@H](C)C1` [Example 62, (7-(5-Chloro-3-methyl-2-(((3S,5R)-5-methylpyrrolidin-3-yl)oxy)phenyl)thieno[3,2-b]pyridin-2-yl)methanol], 10 to 30 µM; under `Cc1cc(C(F)(F)F)cc(-c2ccnc3cc(CN4C(=O)CCC4=O)sc23)c1O[C@@H]1CNC[C@@H]1F` [Example 63, 1-((7-(2-(((3R,4S)-4-Fluoropyrrolidin-3-yl)oxy)-3-methyl-5-(trifluoromethyl)phenyl)thieno[3,2-b]pyridin-2-yl)methyl)pyrrolidine-2,5-dione], under 1 µM.
Under `Cc1cc(Cl)cc(-c2ccnc3cc(CN4C(=O)CCC4=O)sc23)c1O[C@@H]1CNC(C(=O)N(C)C)C1` (stereo partly drawn) [Example 64, (4S)-4-(4-Chloro-2-(2-((2,5-dioxopyrrolidin-1-yl)methyl)thieno[3,2-b]pyridin-7-yl)-6-methylphenoxy)-N,N-dimethylpyrrolidine-2-carboxamide] stands 1 to 10 µM; under `Cc1cc(Cl)cc(-c2ccnc3c(F)c(CN4C(=O)CCC4=O)sc23)c1O[C@@H]1CNC[C@@H]1F` [Example 65, 1-((7-(5-Chloro-2-(((3R,4S)-4-fluoropyrrolidin-3-yl)oxy)-3-methylphenyl)-3-fluorothieno[3,2-b]pyridin-2-yl)methyl)pyrrolidine-2,5-dione], under 1 µM.
Under `CO[C@@H]1CNC[C@@H]1Oc1c(C)cc(Cl)cc1-c1ccnc2cc(CO)sc12` [Example 66, (7-(5-Chloro-2-(((3S,4R)-4-methoxypyrrolidin-3-yl)oxy)-3-methylphenyl)thieno[3,2-b]pyridin-2-yl)methanol] stands 10 to 30 µM; under `Cc1cc(Cl)cc(-c2ccnc3cc(CO)sc23)c1O[C@H]1CNC[C@H]1F` [Example 67, (7-(5-Chloro-2-(((3S,4R)-4-fluoropyrrolidin-3-yl)oxy)-3-methylphenyl)thieno[3,2-b]pyridin-2-yl)methanol], 10 to 30 µM.
Consider `Cc1cc(Cl)cc(-c2ccnc3cc(CO)sc23)c1O[C@@H]1CNC[C@@H]1C(C)C` [Example 68, (7-(5-Chloro-2-(((3S,4S)-4-isopropylpyrrolidin-3-yl)oxy)-3-methylphenyl)thieno[3,2-b]pyridin-2-yl)methanol], for which the concentration for half-maximal inhibition (IC50) was over 30 µM.
Under `Cc1cc(Cl)cc(-c2ccnc3cc(CO)sc23)c1OCC12CNCC1C2` (stereo not drawn) [Example 69, (7-(2-((3-Azabicyclo[3.1.0]hexan-1-yl)methoxy)-5-chloro-3-methylphenyl)thieno[3,2-b]pyridin-2-yl)methanol] stands 10 to 30 µM; under `Cc1cc(Cl)cc(-c2ccnc3cc(CO)sc23)c1OCC1CCNC1` (stereo not drawn) [Example 70, (7-(5-Chloro-3-methyl-2-(pyrrolidin-3-ylmethoxy)phenyl)thieno[3,2-b]pyridin-2-yl)methanol], 10 to 30 µM.
Under `Cc1cc(Cl)cc(-c2ccnc3cc(CO)sc23)c1O[C@@H]1CN[C@@H](C(C)(C)O)C1` [Example 71, 2-((2R,4S)-4-(4-Chloro-2-(2-(hydroxymethyl)thieno[3,2-b]pyridin-7-yl)-6-methylphenoxy)pyrrolidin-2-yl)propan-2-ol] stands 10 to 30 µM; under `Cc1cc(Cl)cc(-c2ccnc3cc(CO)sc23)c1O[C@@H]1CN[C@H](C(C)(C)O)C1` [Example 72, 2-((2S,4S)-4-(4-Chloro-2-(2-(hydroxymethyl)thieno[3,2-b]pyridin-7-yl)-6-methylphenoxy)pyrrolidin-2-yl)propan-2-ol], 1 to 10 µM.
Under `CCO[C@H]1CNC[C@H]1Oc1c(C)cc(Cl)cc1-c1ccnc2cc(CO)sc12` [Example 73, (7-(5-Chloro-2-(((3R,4S)-4-ethoxypyrrolidin-3-yl)oxy)-3-methylphenyl)thieno[3,2-b]pyridin-2-yl)methanol] stands 10 to 30 µM; under `Cc1cc(Cl)cc(-c2ccnc3cc(CO)sc23)c1O[C@@H]1CCC[C@@H]1N` [Example 74, (7-(2-(((1R,2S)-2-Aminocyclopentyl)oxy)-5-chloro-3-methylphenyl)thieno[3,2-b]pyridin-2-yl)methanol], 10 to 30 µM.
In the case of `Cc1cc(Cl)cc(-c2ccnc3cc(CO)sc23)c1O[C@@H]1CCC[C@H]1N` [Example 75, (7-(2-(((1R,2R)-2-Aminocyclopentyl)oxy)-5-chloro-3-methylphenyl)thieno[3,2-b]pyridin-2-yl)methanol], the concentration for half-maximal inhibition (IC50) was in the range of 10 to 30 µM.
Under `Cc1cc(Cl)cc(-c2ccnc3cc(CO)sc23)c1O[C@@H]1CN[C@@H](CO)C1` [Example 76, (7-(5-Chloro-2-(((3S,5R)-5-(hydroxymethyl)pyrrolidin-3-yl)oxy)-3-methylphenyl)thieno[3,2-b]pyridin-2-yl)methanol] stands 10 to 30 µM; under `Cc1cc(Cl)cc(-c2ccnc3cc(CO)sc23)c1O[C@@H]1CN[C@H](CO)C1` [Example 77, (7-(5-Chloro-2-(((3S,5S)-5-(hydroxymethyl)pyrrolidin-3-yl)oxy)-3-methylphenyl)thieno[3,2-b]pyridin-2-yl)methanol], 10 to 30 µM.
For `Cc1cc(Cl)cc(-c2ccnc3cc(CO)sc23)c1O[C@@H]1CNC[C@@H]1O` [Example 78, (3S,4R)-4-(4-Chloro-2-(2-(hydroxymethyl)thieno[3,2-b]pyridin-7-yl)-6-methylphenoxy)pyrrolidin-3-ol], the concentration for half-maximal inhibition (IC50) lay in the range of 1 to 10 µM.
As to `Cc1cc(Cl)cc(-c2ccnc3ccsc23)c1OC1CCNC1=O` (stereo not drawn) [Example 79, 3-(4-chloro-2-methyl-6-(thieno[3,2-b]pyridin-7-yl)phenoxy)pyrrolidin-2-one], the IC50 is over 30 µM.
Under `Cc1cc(Cl)cc(-c2ccnc3cc(CO)sc23)c1O[C@@H]1CNC[C@H]1O` [Example 80, (3R,4R)-4-(4-Chloro-2-(2-(hydroxymethyl)thieno[3,2-b]pyridin-7-yl)-6-methylphenoxy)pyrrolidin-3-ol] stands 1 to 10 µM; under `CCC(O)c1cc2nccc(-c3cc(Cl)cc(C)c3O[C@@H]3CNC[C@@H]3F)c2s1` (stereo partly drawn) [Example 82, 1-(7-(5-Chloro-2-(((3R,4S)-4-fluoropyrrolidin-3-yl)oxy)-3-methylphenyl)thieno[3,2-b]pyridin-2-yl)propan-1-ol], 1 to 10 µM; under `Cc1cc(Cl)cc(-c2ccnc3cc(CN4C(=O)CCC4=O)sc23)c1O[C@@H]1CNC[C@@H]1N=[N+]=[N-]` [Example 83, 1-((7-(2-(((3R,4S)-4-Azidopyrrolidin-3-yl)oxy)-5-chloro-3-methylphenyl)thieno[3,2-b]pyridin-2-yl)methyl)pyrrolidine-2,5-dione], under 1 µM.
Under `CC(=O)N[C@H]1CNC[C@H]1Oc1c(C)cc(Cl)cc1-c1ccnc2cc(CO)sc12` [Example 84, N-((3S,4R)-4-(4-Chloro-2-(2-(hydroxymethyl)thieno[3,2-b]pyridin-7-yl)-6-methylphenoxy)pyrrolidin-3-yl)acetamide] stands 10 to 30 µM.
In the case of `CC(=O)N[C@H]1CNC[C@H]1Oc1c(C)cc(Cl)cc1-c1ccnc2cc(CN3C(=O)CCC3=O)sc12` [Example 85, N-((3S,4R)-4-(4-Chloro-2-(2-((2,5-dioxopyrrolidin-1-yl)methyl)thieno[3,2-b]pyridin-7-yl)-6-methylphenoxy)pyrrolidin-3-yl)acetamide], the IC50 is 1 to 10 µM.
Take `CCC(O)c1cc2nccc(-c3cc(Cl)cc(C)c3O[C@@H]3CN[C@H](C(C)(C)O)C3)c2s1` (stereo partly drawn) [Example 86, 1-(7-(5-Chloro-2-(((3S,5S)-5-(2-hydroxypropan-2-yl)pyrrolidin-3-yl)oxy)-3-methylphenyl)thieno[3,2-b]pyridin-2-yl)propan-1-ol]: the IC50 lay in the range of 1 to 10 µM.
Under `CCC(O)c1cc2nccc(-c3cc(Cl)cc(C)c3OC3CCNC3=O)c2s1` (stereo not drawn) [Example 87, 3-(4-Chloro-2-(2-(1-hydroxypropyl)thieno[3,2-b]pyridin-7-yl)-6-methylphenoxy)pyrrolidin-2-one] stands 10 to 30 µM; under `Cc1cc(Cl)cc(-c2ccnc3cc(CO)sc23)c1O[C@@H]1CC[C@H](N)C1` [Example 89, (7-(2-(((1R,3S)-3-Aminocyclopentyl)oxy)-5-chloro-3-methylphenyl)thieno[3,2-b]pyridin-2-yl)methanol], 10 to 30 µM.
Under `Cc1cc(Cl)cc(-c2ccnc3cc(CO)sc23)c1O[C@@H]1CC[C@@H](N)C1` [Example 90, (7-(2-(((1R,3R)-3-Aminocyclopentyl)oxy)-5-chloro-3-methylphenyl)thieno[3,2-b]pyridin-2-yl)methanol] stands 1 to 10 µM.

The values are drawn from patent US10722514B2 (FLX Bio, Inc., priority 2017, dated 2020).
